Experimental findings from US20080166807A1, “Autologous progenitor stem cells of gastrointestinal origin” (priority 2005, published 2008) are described below.

Several values for one entry are separate records, joined by “and”; a condition that tells them apart may be missing. Equal values may be shown once.

In the experiment the test system is GIP-C cells. Kind of experiment: Attachment factors study with subcultured GIP-C cells (cell counts in supernatant and of attached cells). Conditions: for Cell counts in Supernatant, 2-5 μm / Cell counts in Supernatant, 5-8 μm / Cell counts of Attached cells, 2-5 μm / Cell counts of Attached cells, 5-8 μm: wells coated with attachment factor, RPMI 1640 media with supplements, two wells each; for Attaching of cells from 2-5 μm (comparison of attachment factors): cells 2-5 μm. The experiment is classed as cell-based. As for the experimental part:
Two of the six well plates were coated with the following attachment factors: Collagen type IV, Fibronectin, Superfibronectin, ECM gel and Laminin. Collagen type IV (2 mg/ml) was made by dissolving 0.75 mg of collagen in 375 μl of sterilized 0.25% acetic acid. Collagen type IV (187.5 μl) was used to coat two wells and Incubated overnight at 2-8° C. Fibronectin (250 μl of 10 μg/ml) was used to coat each well and air-dried at room temperature for 45 minutes. Superfibronectin (250 μl of 5 μg/ml) was used to coat each well and incubated at 37° C. for two hours. The wells were then washed twice with 100 μl of PBS, and left to air dry in a laminar flow hood. ECM gel was thawed overnight before use; 250 μl of ECM gel was mixed with 250 μl of cold DMEM medium before using 250 μl of the mixture to coat precooled wells. The ECM gel was then left for five minutes at 20° C. for the gel to polymerize. An aliquot of 200 μg/200 μl of laminin was thawed at 4° C. for 2-4 hrs before making a dilution using 36 μl of stock solution and diluting it with 464 μl of sterile PBS. Laminin (250 μl, 18 μg/well) was used to coat each well. The plates with laminin were then air-dried for 45 minutes. All of the plates containing the attachment factors were sterilized overnight by exposure to UV light in a sterile tissue culture hood.
RPMI 1640 media (250 ml) was obtained from Invitrogen (11875-085), to which the following supplements were added: 100 ng/ml of cholera-toxin (Sigma, C8052), 500 ng/ml of hydrocortisone (Sigma, H0888), 5% of heat inactivated horse serum (Gibco, 16050-130) and 25 ml of Mesenchymal supplement (Stemcell technologies, 05402). After the media was filter sterilized and aliquots of 26 ml were made, they were stored at 4° C.
RPMI 1640 media with all the supplements was warmed at 37° C. Two ml of the media was added to each well containing the attachment factors along with 3 control wells which contained no attachment factors. Cells previously subcultured in mesencult medium were pelleted and divided into 100,000 cells per well and incubated at 37° C. The cells were observed under a phase-contrast microscope. Once, every two days the top layer containing the unattached GIP-C cells was removed, washed and resuspended in freezing media. Two ml of RPMI 1640 media with the supplements was added to the wells and incubated at 37° C.
The gastrointestinal progenitor cells in culture were found mostly in suspension in the culture media. In order to test the adherence of these cells a study was conducted where they were plated on tissue culture wells coated with each of the five different epithelial cell attachment factors: collagen type IV, laminin, superfibronectin, fibronectin, and ECM gel. There were three control wells with no attachment factors in them.

As for Laminin, the “Cell counts in Supernatant, 2-5 μm” value is 4.09E+07 Cells/ml and 3.04E+07 Cells/ml; the “Cell counts in Supernatant, 5-8 μm” value is 90048 Cells/ml and 84822 Cells/ml; the “Cell counts of Attached cells, 2-5 μm” value is 974448 Cells/ml and 643602 Cells/ml; the “Cell counts of Attached cells, 5-8 μm” value is 40602 Cells/ml and 43416 Cells/ml.
As to Collagen type IV, the “Attaching of cells from 2-5 μm (comparison of attachment factors)” value is “seemed to be better at attaching cells”; the “Cell counts in Supernatant, 2-5 μm” value is 1.22E+07 Cells/ml and 1.60E+07 Cells/ml; the “Cell counts of Attached cells, 2-5 μm” value was 2.25E+06 Cells/ml and 1.19E+06 Cells/ml; the “Cell counts of Attached cells, 5-8 μm” value is listed as 57486 Cells/ml.
Turning to Fibronectin, the “Cell counts in Supernatant, 5-8 μm” value is 68340 Cells/ml and 63918 Cells/ml; the “Cell counts of Attached cells, 2-5 μm” value worked out at 68340 Cells/ml.
With Superfibronectin, the “Attaching of cells from 2-5 μm (comparison of attachment factors)” value was “seemed to be better at attaching cells”; the “Cell counts in Supernatant, 2-5 μm” value is 3.96E+07 Cells/ml and 5.06E+07 Cells/ml; the “Cell counts in Supernatant, 5-8 μm” value is 67536 Cells/ml and 54672 Cells/ml; the “Cell counts of Attached cells, 2-5 μm” value was 1.62E+06 Cells/ml and 1.35E+06 Cells/ml.
